Data taken from patent US20110060000A1, “ACRIDINE ANALOGS IN THE TREATMENT OF GLIOMAS” (priority 2009, published 2011).

How the values were obtained:
[1] = test system: subcutaneous U87-MG gliomas; assay: Mice bearing subcutaneous U87-MG gliomas; assay type: in vivo
Text: The estimated survival prolongment is 14 days in mice life which compares at 851 days in human life based on a life expectancy of 18 months in mice and 90 years in human. Also, since one animal was tumor-free at the end of the treatment that translates in an expected 16% cure rate.
FIG. 29a graphs % tumor weight/control as a function of days after implantation. […] Such a profile indicates effectiveness in vivo for both treatment and for prevention of relapse. FIG. 29b graphs % animal survival as a function of days after implantation. […] Such a profile indicates effectiveness in vivo for both treatment and for prevention of relapse.
Mice bearing subcutaneous gliomas were received daily oral administration of 200 mg/kg of quinacrine. […] In FIG. 29 is shown the effect of 100 mg/kg of quinacrine and 10 mg/kg 9-aminoacridine in Mice bearing subcutaneous U87-MG gliomas.

C6 cells = conditions: tested at less than 1 μM; cited from earlier work
DNA = conditions: cited from earlier work
[2] = test system: U87-MG skin xenograft tumor explants; assay: U87-MG skin xenograft tumor explants, ERSR markers; assay type: in vivo, mice; conditions: samples after 7 and 21 days
Text: U7 represents vehicle treated sample after 7 days. U21 represents vehicle treated sample after 21 days. Q7 represents quinacridine-treated sample after 7 days. Q21 represents quinacridine-treated sample after 21 days. 9AA-7 represents 9-aminoacridine-treated sample after 7 days. 9AA-21 represents 9-aminoacridine-treated sample after 21 days.

glioma cells = assay: Gliotoxicity, cell line not stated; assay type: cell-based
Text: Spiperone is a selective D2 dopamine receptor antagonist. This drug is used in the treatment of schizophrenia and other hallucinatory states. […] In an effort to develop Structure-Activity Relationships around the chosen compounds, a search of commercially available compounds that are either close structural analogs of these lead compounds (for example, acridine and quinoline analogs of quinacrine) or are related to these in terms of their pharmacological activity (dopamine receptor antagonists related to spiperone) was performed.

tumor cells = conditions: in vitro and in vivo; cited from earlier work
p53 = conditions: cited from earlier work
[3] = intrapleural, 100 mg/day in 50 ml saline for 4 days; cited from earlier work
platelets = conditions: cited from earlier work
C6 = assay: TUNEL labeling in C6; assay type: cell-based, rat; conditions: C6, 24 hours
Method: C6 were plated on glass coverslips. Cells were fixed and stained accordingly to manufacturer instructions. Propidium staining of the nuclei was replaced by Hoechst included in the mounting media. Several images were acquired with a high resolution camera on a microscope equipped with a 10× long working distance dry lens and analyzed with powerful commercial software. Results were expressed in the graph as green labeled pixel counts. The images from the top to the bottom are respectively from N.T., DMSO, Thap 20 nM, Thap 200 nM, STS100 nM. The blue images reflect nuclear staining while the images on the right represent BRDU staining.
Thereafter, cells were harvested and protein extracted. Procaspase 12 band at 65 kDa was identified. In some of the treatments, the active product at 45 kDa was also detected. […] Conversely, in C6, higher GRP78 levels and the cell environment reflect significant caspase activation. […] Caspase activation in ERSR conditions was also confirmed with a TUNEL based apoptosis detection system in C6. […] High resolution images of the experiments were acquired and image morphometric analysis was performed to determine quantitative parameters of the staining as previously described (Pascale et al., 2004, “Translocation of protein kinase C-betaII in astrocytes requires organized actin cytoskeleton and is not accompanied by synchronous RACK1 relocation.” Glia 46(2): 169-82). […]

[4] = 200 mg/kg daily oral for 14 days
[5] = full dose over about 45 days, Q oral, 9-AA I.P.
[6] = half dose (maintenance dose) up to about 60 days

CCN(CC)CCCC(C)Nc1c2ccc(Cl)cc2nc2ccc(OC)cc12 (stereo not shown) [quinacrine]
antiglioma action ([1]; 100 mg/kg of quinacrine and 10 mg/kg 9-aminoacridine): powerful antiglioma action | delay in tumor growth ([1]; 200 mg/kg daily oral): 14 days | tumor growth after withdrawal of treatment versus controls ([1]; 200 mg/kg daily oral): significant reduction in tumor growth than controls | estimated survival prolongment in mice life [1, 4]: 14 days | tumor in one of the treated animals [1, 4]: disappearance of the tumor | tumor size in treated animals [1, 4]: tumors decrease in size | effect on tumor growth ([1]; 200 mg/kg daily oral, at 11 days): already significant | inhibition of tumor growth ([1]; 200 mg/kg daily oral, at 21 days): 6-7 folds | animal survival rate compared to control [1, 5]: increased survival rate | tumor size compared to control [1, 5]: decrease in tumor size | animal survival rate compared to control [1, 6]: survival rate was high | tumor size compared to control [1, 6]: tumor size remained relatively constant | delay / survival prolongment translated to human life ([1]; life expectancy 18 months in mice, 90 years in human): 851 days | cure rate ([1]; quinacrine 200 mg/kg daily oral, one animal tumor-free): 16% | killing of C6 cells (C6 cells): ineffective in killing C6 cells | DNA damaging activity (DNA): not found to show DNA damaging activity | ERSR activation and GRP78 target protein in tumor explants [2]: activaiton of ERSR and changes in GRP78 target protein | caspase 12 activation in tumor explants [2]: activation of caspase 12 is evident | cytotoxicity in human cells versus rat cells (glioma cells): higher cytotoxicity in human cells than in rat cells | gliotoxicity (glioma cells; cell line not stated): by far the most effective gliotoxic compound | toxicity to tumor versus normal cells (tumor cells): more toxic to tumor than to normal cells | p53 activation and p53-dependent killing of tumor cell types (p53): capable of p53 activation and p53-dependent killing | peak concentration [3]: less than 10 ng/ml | alpha-granule release reaction of platelets (platelets): prevent the alpha-granule release reaction of platelets

C/C=C(/C)C(=O)O[C@H]1C(C)=C2[C@H]([C@@H]1OC(=O)CCCCCCC)[C@@](C)(OC(C)=O)C[C@H](OC(=O)CCC)[C@@]1(O)[C@H]2OC(=O)[C@@]1(C)O [THAP, thapsigargin]
TUNEL labeling (C6): clear increase of TUNEL labeling
